Assay results taken from US5545545A, “Lysine-insensitive maize dihydrodipicolinic acid synthase” (priority 1993, dated 1996).
Like-named read-outs stand apart in the source and are kept apart here.

How the values were obtained:
[1] = target: T1, altered maize DHPS (pZM DHPS-M1) fusion protein expressed in AT997 E. coli (Zea mays, UniProt P26259, A166V/R367Q); test: Lysine inhibition of partially purified mutant DHPS-M1 fusion protein (FIG. 4); assay type: biochemical
T1 construct: made in house; host or cells: E. coli AT997 dapA- (pZM DHPS-M1), heat-treated, desalted extract
Protocol: (§1) AT997 cells (approximately 1 ml packed vol), containing plasmids pZM DHPS5B, pZM DHPS-M1 or pZM DHPS-M2, were extracted by sonication (60 W, 20 s) into 5 ml of ice cold buffer containing (100 mM TRIS-HCl, pH 8.0, 100 mM NaCl, 50 mM pyruvate) and then centrifuged at […] for 10 min. The supernatant was placed in a water bath (60° C.) for 5 min, cooled to 4° C. and centrifuged. The resulting supernatant was desalted on a Sephadex G50 column in 10 mM TRIS-HCl, pH 8.0, and 1 mM EDTA.
(§2) DHPS activity was determined as described in Example 2 except that the reaction was stopped after 2 min; at longer reaction times, activity was not linear with time. The volume of enzyme was adjusted so that the absorbance at 520 nm increased approximately 0.1 A (=100 activity units) after 2 min for standard control assays. Lysine concentrations were varied from 0.01 mM to 1.0 mM in the presence of constant concentrations of the substrates pyruvate (20 mM) and aspartate semialdehyde (1.4 mM). The average of two or three assays were used to determine enzyme activity values and percent inhibition by lysine.

[2] = target: T2, wildtype E. coli DHPS from 71-18dapA+ (Escherichia coli, UniProt P0A6L2); test: DHPS activity in crude lysate of wildtype 71-18dapA+ cells, with or without lysine; assay type: biochemical
T2 construct: Crude lysates from wildtype 71-18dapA; endogenous in cells; host or cells: E. coli 71-18 (dapA+), crude desalted lysate
Protocol: (§3) Crude lysates from wildtype 71-18dapA^+ cells, AT997dapA^- transformed with pUC13 lacking a cDNA insert, and the five complementing transformant cell lines AT997(pZM DHPS1) to AT997(pZM DHPS5) were assayed for DHPS activity. The transformed cells were grown overnight in M9 medium+100 μM DAP, collected by centrifugation at 5000×g for 10 min and resuspended in 1/10 volume of extraction buffer (100 mM TRIS-HCl, pH 8.0, 100 mM NaCl, 100 mM pyruvate). Cells were placed briefly on ice, disrupted by sonication (60 W, 15 s) and debris removed by centrifugation at 15000×g for 15 min. The supernatant was desalted on a G25 Sephadex column equilibrated with 10 mM TRIS-HCl, pH 8.0 and 1 mM EDTA and used for enzyme assays.
(§4) The DHPS assay buffer (R. M. Wallsgrove et al., Phytochem., 20, 2651 (1981)) contained 100 mM TRIS-HCl, pH 8.0, 10 mM pyruvate, 1.4 mM aspartate semialdehyde neutralized just prior to use, and 100 μl enzyme in a final volume of 250 μl. Tubes were incubated at 37° C. for 30 min and reactions stopped by addition of 1 ml of 0.22M sodium citrate, 0.55M sodium phosphate, pH 5.0 and 0.25 mg/ml-aminobenzaldehyde. The colored reaction product was allowed to form for 3 hr at 37° C. and samples were centrifuged at 10000 g. Activity units (0.001 OD/min) were determined at 520 nm; standard errors of replicate assays were routinely <2% of the mean.

[3] = target: T3, DHPS from wildtype, nontransformed E. coli strain DH5A (Escherichia coli, UniProt P0A6L2); test: Lysine inhibition of DHPS from wildtype nontransformed E. coli (FIG. 4); assay type: biochemical; conditions: lysine concentrations up to 1 mM
T3 construct: DHPS from wildtype, nontransformed E. coli strain DH5A; endogenous in cells; host or cells: E. coli DH5A

native Zea mays DHPS [4] = target: T4, native Zea mays DHPS (Zea mays, UniProt P26259); test: Lysine feedback inhibition of native maize DHPS in vitro; assay type: biochemical; conditions: native Zea mays DHPS / native plant DHP synthase, read-out: I50 of feedback inhibition by lysine
T4 construct: host or cells: maize cells (highly purified DHPS)
T4 sequence (P26259 55-380): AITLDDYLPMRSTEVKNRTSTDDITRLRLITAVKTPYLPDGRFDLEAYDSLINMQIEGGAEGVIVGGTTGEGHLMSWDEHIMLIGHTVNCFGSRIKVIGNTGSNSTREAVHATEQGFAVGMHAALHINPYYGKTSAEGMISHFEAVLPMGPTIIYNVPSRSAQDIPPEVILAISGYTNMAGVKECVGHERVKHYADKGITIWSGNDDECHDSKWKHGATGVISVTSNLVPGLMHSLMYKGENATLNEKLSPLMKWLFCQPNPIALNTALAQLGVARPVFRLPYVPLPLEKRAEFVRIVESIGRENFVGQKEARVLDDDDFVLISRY
Excerpt: For example, novel plants resulting from the present method contain extractable lysine levels at least about ten times, and preferably, at least about 50 times, e.g., about 50-250 times higher than plants of the same species which contain only native DHPS.
This difference in lysine sensitivity was an additional indication that the cDNA inserts were from maize and that restoration of DHPS activity in the E. coli mutant was not caused by reversion of the dapA^- allele or due to an interaction with pUC13 plasmid DNA. In preliminary tests of partially purified DHPS from cell line pZM DHPS5, the [I]0.5 value for lysine was determined to be in the range of 20 to 30 μM.

[5] = target: T5, Purified DHPS from Black Mexican Sweet maize (Zea mays, UniProt P26259); test: DHPS activity of purified maize DHPS, with or without lysine; assay type: biochemical
T5 construct: from tissue; host or cells: Black Mexican Sweet maize suspension cultures (endogenous enzyme, purified more than 4000-fold)
T5 sequence (P26259 55-380): T4 sequence (P26259 55-380)
Protocol: as §4
The putative start of the coding region for maize DHPS was established by comparison of the N-terminus amino acid sequence of SDS-PAGE purified DHPS monomer with the amino acid sequence derived from the nucleotide sequence. DHPS was purified more than 4000-fold with 25% recovery from Black Mexican Sweet maize suspension cultures by the procedure of D. A. Frisch et al., Plant Physiol., 96, 444 (1991). Only one protein band (ca. 130000 Mr) was detected by silver-staining after native polyacrylamide gel electrophoresis (PAGE) and this band corresponded to the position of DHPS activity. […]

[6] = target: T6, altered maize DHPS (pZM DHPS-M2) fusion protein expressed in AT997 E. coli (Zea mays, UniProt P26259); test: Lysine inhibition of partially purified mutant DHPS-M2 fusion protein (FIG. 4); assay type: biochemical; conditions: L-lysine concentrations as high as 1.0 mM
T6 construct: heat-treated, desalted extract
Protocol: as §1, §2

[7] = target: T7, altered maize DHPS (pZM DHPS-M4, lysine for glutamic acid at position 108) (Zea mays, UniProt P26259, E162K/R367Q); test: Lysine sensitivity of DHPS activity of mutant pZM DHPS-M4; assay type: biochemical
T7 construct: the 380 amino acids of the maize cDNA coding region; beta-galactosidase N-terminal residues (5 aa) (N); vector polylinker (18 aa) (N); translated 5' untranslated region of the cDNA (13 aa) (N); made in house; host or cells: E. coli AT997 dapA- (inferred from the repeated mutagenesis and selection protocol)
Excerpt: (§5) Additional independently derived mutations in maize DHPS were obtained by repeating the mutagenesis and selection protocol in separate experiments. […] Mutant plasmid pZM DHPS-M3 has a nucleotide change at position #496 (ACA instead of GCA); this change causes substitution of threonine for alanine at the same amino acid position (112) as altered in mutant pZM DHPS-M1. Mutant plasmid pZM DHPS-M4 has a nucleotide change at position #484 (AAA instead of GAA); this change causes substitution of lysine for glutamic acid at amino acid position #108.

native Zea mays DHPS [8] = target: T4, native Zea mays DHPS; conditions: highly purified DHPS from maize cells; Frisch et al., Plant Physiol., 96, 444 (1991); read-out: [I]0.5 value for lysine; cited from earlier work
[9] = test system: wildtype maize DHPS (pZM DHPS5B) fusion protein expressed in AT997 E. coli; test: Lysine inhibition of partially purified wildtype maize DHPS fusion protein (FIG. 4); assay type: biochemical
Protocol: as §1, §2

[10] = test system: maize DHPS (cDNA expression product in AT997dapA- transformants); test: DHPS activity in crude lysates of AT997dapA- transformants pZM DHPS1 to pZM DHPS5, with or without lysine; assay type: biochemical; conditions: for % Inhibition: 100 μM lysine
Protocol: as §3, §4

[11] = target: T8, altered maize DHPS (pZM DHPS-M3, threonine for alanine at position 112) (Zea mays, UniProt P26259, A166T/R367Q); test: Lysine sensitivity of DHPS activity of mutant pZM DHPS-M3; assay type: biochemical
T8 construct: the 380 amino acids of the maize cDNA coding region; beta-galactosidase N-terminal residues (5 aa) (N); vector polylinker (18 aa) (N); translated 5' untranslated region of the cDNA (13 aa) (N); made in house; host or cells: E. coli AT997 dapA- (inferred from the repeated mutagenesis and selection protocol)
Excerpt: as §5

T1 sequence (P26259 whole entry A166V/R367Q, the tested form may be a part): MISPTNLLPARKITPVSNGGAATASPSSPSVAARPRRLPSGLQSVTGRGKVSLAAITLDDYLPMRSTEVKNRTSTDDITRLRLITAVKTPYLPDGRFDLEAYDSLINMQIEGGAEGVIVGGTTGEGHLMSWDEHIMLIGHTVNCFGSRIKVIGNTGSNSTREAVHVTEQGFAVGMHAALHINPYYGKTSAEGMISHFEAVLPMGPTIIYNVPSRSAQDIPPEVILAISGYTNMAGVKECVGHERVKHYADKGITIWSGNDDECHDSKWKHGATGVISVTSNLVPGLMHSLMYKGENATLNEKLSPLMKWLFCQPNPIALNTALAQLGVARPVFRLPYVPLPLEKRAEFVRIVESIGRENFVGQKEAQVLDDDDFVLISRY
T2 sequence (P0A6L2 whole entry): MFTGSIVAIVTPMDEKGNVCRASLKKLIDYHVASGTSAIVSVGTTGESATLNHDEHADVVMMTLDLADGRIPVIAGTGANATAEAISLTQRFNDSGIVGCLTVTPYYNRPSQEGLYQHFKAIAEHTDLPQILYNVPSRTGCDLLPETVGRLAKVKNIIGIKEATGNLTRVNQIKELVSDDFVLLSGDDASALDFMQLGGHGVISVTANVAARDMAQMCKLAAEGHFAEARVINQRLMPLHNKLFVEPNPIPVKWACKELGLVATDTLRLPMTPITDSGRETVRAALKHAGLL
T7 sequence (P26259 whole entry E162K/R367Q): as the sequence (P26259 whole entry A166V/R367Q, the tested form may be a part) above, with E162K, V166A counted along it
T8 sequence (P26259 whole entry A166T/R367Q): as the sequence (P26259 whole entry A166V/R367Q, the tested form may be a part) above, with V166T counted along it
T3 sequence (P0A6L2 whole entry): as the sequence (P0A6L2 whole entry) above
T6 sequence (P26259 whole entry, the tested form may be a part): as the sequence (P26259 whole entry A166V/R367Q, the tested form may be a part) above, with V166A, Q367R counted along it

NCCCC[C@H](N)C(=O)O [lysine, L-lysine]
inhibition of DHPS activity by lysine ([1]; DHPS expressed from SEQ ID NO. 1 in E. coli transformants, 1000 μM lysine): not inhibited | reduction in sensitivity to lysine versus native Zea mays DHPS ([1]; altered Zea mays DHPS of SEQ ID NO. 2): more than 400 times | L-lysine level at which altered DHPS is active, relative to native DHPS ([1]; altered maize DHPS of the invention, in vitro): at least 100 fold | inhibition of DHPS activity by L-lysine ([1]; pZM DHPS-M1, L-lysine concentrations as high as 1.0 mM): not inhibited | Specific Activity, 100 μM Lysine ([2]; 71-18dapA+ crude lysate): 120 0.001 OD520 /min per milligram | inhibition at 100 µM ([2]; 71-18dapA+, 100 μM lysine): 8% | inhibition of DHPS activity by lysine [3]: intermediate level of inhibition | IC50 (native Zea mays DHPS [4]): 25 µM | inhibition at 100 µM ([5]; 100 μM lysine): 97% | DHPS activity, 100 μM Lysine ([5]; specific activity not determined (footnote b)): 8 units of DHPS activity | inhibition of DHPS activity by L-lysine [6]: not inhibited | lysine sensitivity of DHPS activity [7]: lysine insensitivity | IC50 (native Zea mays DHPS [8]): 23 µM | inhibition of wildtype maize DHPS activity ([9]; 100 μM lysine, E. coli transformants): more than 90% | inhibition of DHPS activity by lysine ([9]; pZM DHPS5B, lysine concentrations as low as 25 μM): significantly inhibited | Specific Activity, 100 μM Lysine ([10]; AT997dapA- (pZM DHPS1)): 24 0.001 OD520 /min per milligram | % Inhibition ([10]; AT997dapA- (pZM DHPS1)): 90% | Specific Activity, 100 μM Lysine ([10]; AT997dapA- (pZM DHPS2)): 15 0.001 OD520 /min per milligram | % Inhibition ([10]; AT997dapA- (pZM DHPS2)): 91% | Specific Activity, 100 μM Lysine ([10]; AT997dapA- (pZM DHPS3)): 22 0.001 OD520 /min per milligram | % Inhibition ([10]; AT997dapA- (pZM DHPS3)): 88% | Specific Activity, 100 μM Lysine ([10]; AT997dapA- (pZM DHPS4)): 42 0.001 OD520 /min per milligram | % Inhibition ([10]; AT997dapA- (pZM DHPS4)): 86% | Specific Activity, 100 μM Lysine ([10]; AT997dapA- (pZM DHPS5)): 27 0.001 OD520 /min per milligram | % Inhibition ([10]; AT997dapA- (pZM DHPS5)): 90% | lysine sensitivity of DHPS activity [11]: lysine insensitivity
